Test results taken from article PMC7473772 (eLife, 2020).
“And” between values parts separate entries of the source, which are not always exact repeats. Equal entries are not always repeated. Structures can show the parent of a compound that is named as a salt. Where two headings read alike, the source gives them in different places.

What was measured:
[1] = target: TbAQP2/HAPT1 (Trypanosoma brucei brucei, UniProt Q6ZXT3); test: cell-based; type: cell-based
[2] = test system: s427WT bloodstream forms; type: cell-based, Trypanosoma brucei brucei
[3] = Gibbs free energy of binding to HAPT
[4] = NI/NE with the concentration tested, read-out: HAPT Ki, AVG

TbAQP2/HAPT1, sequence (Q6ZXT3 whole entry): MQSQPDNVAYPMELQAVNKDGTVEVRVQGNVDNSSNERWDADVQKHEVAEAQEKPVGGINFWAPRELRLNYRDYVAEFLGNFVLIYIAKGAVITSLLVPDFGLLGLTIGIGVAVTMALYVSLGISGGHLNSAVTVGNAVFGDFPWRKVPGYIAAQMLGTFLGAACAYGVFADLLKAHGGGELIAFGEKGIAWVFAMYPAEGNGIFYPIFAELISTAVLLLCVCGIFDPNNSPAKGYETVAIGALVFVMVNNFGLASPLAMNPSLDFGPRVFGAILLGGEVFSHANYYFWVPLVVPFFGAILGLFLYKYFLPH

Row | SMILES | ΔG0 [1] | Ki ([1]; Ki) | δ(ΔG^0) PMD [1] | further results
1 | O=C(CCc1ccc(O)cc1)c1c(O)cc(O)cc1O [Phloretin] | -7.84 kcal/mol | 1.76 µM |  | δ(ΔG0) [1]: 2.32 kcal/mol
2 | N=C(N)CCc1ccc(-c2ccc(-c3ccc(CCC(=N)N)cc3)s2)cc1 [DB1063, 3,3'-(thiophene-2,5-diylbis(4,1-phenylene)) dipropanimidamide dihydrochloride] | -8.72 kcal/mol | 0.4 ± 0.1 µM | 1.43 kcal/mol | 
3 | N=C(N)c1ccc(OCCOCCOc2ccc(C(=N)N)cc2)cc1 [DB1699] | -6.52 kcal/mol | 16.6 ± 2.1 µM | 3.66 kcal/mol | 
4 | N=C(N)c1cccc(OCCCCCOc2cccc(C(=N)N)c2)c1 [Meta-pentamidine RT40] | -5.71 kcal/mol |  |  | δ(ΔG0) [1]: 4.45 kcal/mol; Ki ([1]; HAPT Ki, AVG): 64.2 µM
5 | N=C(N)c1ccc(OCCCCOc2ccc(C(=N)N)cc2)cc1 [Butamidine, 4,4’-(Butane-l ,4-diylbis(oxy))dibenzimiamide dihydrochloride dihydrate] | -7.39 kcal/mol | 3.87 ± 1.38 µM | 2.8 kcal/mol | 
6 | Cn1c([N+](=O)[O-])cnc1-c1nnc(N)s1 [megazol] |  |  |  | HAPT Ki, AVG [1]: NE, 250; Ki [1]: failed to inhibit
7 | Cn1c(-c2ccc(C(=N)N)cc2)ccc1-c1ccc(C(=N)N)cc1 [DB320] | -5.66 kcal/mol | 71.3 ± 12.1 µM | 4.52 kcal/mol | 
8 | N=C(N)c1ccc(-c2ccc(-c3ccc(C(=N)N)cn3)o2)nc1 [DB829] | -6 kcal/mol | 39.9 ± 8 µM | 4.16 kcal/mol | 
9 | N=C(N)c1ccc(OCCCOc2ccc(C(=N)N)cc2)cc1 [Chainlength 3] |  |  |  | Ki ([1]; Ki value, Mean): 7.2 µM
10 | N=C(N)c1ccc(-c2ccc(-c3ccc(C(=N)N)nc3)o2)cn1 [DB994] | -5.16 kcal/mol | 167 ± 20 µM | 5.02 kcal/mol | 
11 | N=C(N)c1ccc(O)cc1 [4-hydroxybenzamidine] | -3.47 kcal/mol | 2900 µM | 6.72 kcal/mol | Ki ([1]; HAPT Ki, AVG): 2890 µM
12 | N=C(N)c1ccc(OCCCCOc2ccc(C(=N)N)cc2)cc1 [Chainlength 4] |  |  |  | Ki ([1]; Ki value, Mean): 3.91 µM
13 | N=C(N)c1ccc(OCCCCCOc2ccc(C(=N)N)cc2)cc1 [Chainlength 5] |  |  |  | Ki ([1]; Ki value, Mean): 0.0364 µM
14 | N=C(N)c1ccc(-c2ccc(-c3ccc(C(=N)N)cn3)o2)cc1 [DB820] |  |  |  | ΔG0 [1, 3]: -5.95 kcal/mol; Ki [1, 4]: 43.4 µM; δ(ΔG0) ([1]; relative to pentamidine (0)): 4.23 kcal/mol
15 | COc1cc(/C=C/C(=O)CC(=O)/C=C/c2ccc(O)c(OC)c2)ccc1O [curcumin] | -4.64 kcal/mol |  |  | Ki [1]: failed to inhibit; δ(ΔG0) [1]: 5.54 kcal/mol; Ki ([1]; HAPT Ki, AVG): 398 µM
16 | N=C(N)c1ccc(-c2csc(-c3ccc(C(=N)N)cc3)n2)cc1 [ER1004, 4,4'-(thiazole-2,4-diyl)dibenzimidamide] | -5.69 kcal/mol | 68.7 ± 16 µM | 4.49 kcal/mol | 
17 | Cl.Cl.c1cc(-c2ccc(-c3ccc(CCC4=NCCN4)cc3)o2)ccc1CCC1=NCCN1 [DB1062, 2,5-bis(4-(2-(4,5-dihydro-1H-imidazol-2-yl)ethyl)phenyl) furan dihydrochloride] | -5.76 kcal/mol | 59.6 ± 11.2 µM | 4.4 kcal/mol | 
18 | N=C(N)CCc1ccc(-c2ccc(-c3ccc(CCC(=N)N)cc3)o2)cc1 [DB1061, 3,3'-(furan-2,5-diylbis (4,1-phenylene)) dipropanimidamide dihydrochloride] | -6.12 kcal/mol | 32.3 ± 6 µM | 4.04 kcal/mol | 
19 | N=C(N)c1ccc(OCCCCCCCCOc2ccc(C(=N)N)cc2)cc1 [Octamidine] | -7.72 kcal/mol | 2.16 ± 0.48 µM | 2.44 kcal/mol | 
20 | N=C(N)c1ccc(OCCCCCCCCOc2ccc(C(=N)N)cc2)cc1 [Chainlength 8] |  |  |  | Ki ([1]; Ki value, Mean): 2.2 µM
21 | N=C(N)Nc1ccc(-c2ccc(-c3ccc(NC(=N)N)cc3)s2)cc1 [DB686] | -8.91 kcal/mol | 0.29 ± 0.11 µM | 1.24 kcal/mol | 
22 | N=C(N)c1ccc(S(=O)(=O)CCCCCS(=O)(=O)c2ccc(C(=N)N)cc2)cc1 [RT-49] |  | > 150 µM | >4.95 kcal/mol | Ki [1]: no binding affinity; δ(ΔG0) [1]: >4.95 kcal/mol

Row | SMILES | ΔG0 [1] | Ki ([1]; Ki) | δ(ΔG^0) PMD [1] | further results
23 | CON1CCN=C1Nc1ccc(CCc2ccc(NC3=NCCN3OC)cc2)cc1 [CRMI8] | -5.83 kcal/mol | 52.8 ± 12.7 µM | 4.33 kcal/mol | 
24 | N=C(N)c1ccc(OCCCCCOc2ccc(C(=N)N)nc2)cn1 [RT-53] |  | > 250 µM | >5.26 kcal/mol | HAPT Ki, AVG [1]: NI, 250; Ki [1]: completely inactive; δ(ΔG0) [1]: >5.26 kcal/mol
25 | N=C(N)NCCCCCCCCCCN=C(N)N.O=S(=O)(O)O [Synthalin sulphate] |  |  |  | ΔG0 [1, 3]: -4.88 kcal/mol; Ki [1, 4]: 270 µM; δ(ΔG0) ([1]; relative to pentamidine (0)): 5.31 kcal/mol
26 | Cl.Cl.N=C(N)c1ccc(OCCOc2ccc(C(=N)N)cc2)cc1.O.O [Ethamidine, 4,4'-(ethane-1,2-diylbis(oxy))dibenzimidamide dihydrochloride dihydrate] |  | > 100 µM | >4.71 kcal/mol | δ(ΔG0) [1]: >4.71 kcal/mol
27 | N=C(N)c1ccc(/C=C/c2ccc(C(=N)N)cc2)cc1 [Stilbamidine] | -5.81 kcal/mol | 54.8 ± 3.2 µM | 4.37 kcal/mol | Ki ([1]; HAPT Ki, AVG): 54.8 µM
28 | N=C(N)c1ccc(-c2cc3ccc(C(=N)N)cc3[nH]2)cc1 [DAPI] | -6.24 kcal/mol |  |  | δ(ΔG0) [1]: 3.92 kcal/mol; Ki ([1]; read-out: HAPT Ki, AVG): 26.4 µM
29 | N=C(N)c1ccc(OCCCOc2ccc(C(=O)O)cc2)cc1 [RT-38] |  | > 100 µM | >4.71 kcal/mol | HAPT Ki, AVG [1]: NI, 100
30 | CC(C)[C@@H]1NC(=O)[C@H](C)OC(=O)[C@@H](C(C)C)NC(=O)[C@@H](C(C)C)OC(=O)[C@H](C(C)C)NC(=O)[C@H](C)OC(=O)[C@@H](C(C)C)NC(=O)[C@@H](C(C)C)OC(=O)[C@H](C(C)C)NC(=O)[C@H](C)OC(=O)[C@@H](C(C)C)NC(=O)[C@@H](C(C)C)OC1=O [valinomycin] |  |  |  | pentamidine uptake ([2]; valinomycin 0.3, AVG): 106.4 percentage of the uninhibited control; pentamidine uptake ([2]; valinomycin 0.3, single repeats): 108.9 percentage of the uninhibited control and 103.8 percentage of the uninhibited control; pentamidine uptake ([2]; valinomycin 1, AVG): 91.0 percentage of the uninhibited control; pentamidine uptake ([2]; valinomycin 1, single repeats): 97.7 percentage of the uninhibited control and 84.2 percentage of the uninhibited control; pentamidine uptake ([2]; valinomycin 10, AVG): 80.1 percentage of the uninhibited control; pentamidine uptake ([2]; valinomycin 10, single repeats): 86.7 percentage of the uninhibited control and 73.5 percentage of the uninhibited control
31 | N=C(N)c1ccc(OCCCCCOc2ccc(C(=N)N)cc2C(N)=O)c(C(N)=O)c1 [RT-46] |  | > 100 µM | >4.71 kcal/mol | Ki [1]: no affinity at all
32 | Cl.Cl.N=C(N)c1ccc(OCCCOc2ccc(C(=N)N)cc2)cc1.O.O [Propamidine, 4,4’-(propane-1,3-diylbis(oxy))dibenzimidamide dihydrochloride dihydrate] | -7.07 kcal/mol | 6.63 ± 1.4 µM | 3.11 kcal/mol | 
33 | Cl.N=C(N)c1ccc(OCCCCOc2ccccc2)cc1.O [CHI/1/69/1, 4-(4-Phenoxybutoxy)benzimidamide hydrochloride hydrate] | -7.7 kcal/mol | 2.33 µM and 2.3 µM | 2.49 kcal/mol | 
34 | N=C(N)c1ccc(OCCCCCCOc2ccc(C(=N)N)cc2)cc1 [Chainlength 6] |  |  |  | Ki ([1]; Ki value, Mean): 0.059 µM
35 | N=C(N)c1ccc(OCCCCCCCOc2ccc(C(=N)N)cc2)cc1 [Chainlength 7] |  |  |  | Ki ([1]; Ki value, Mean): 0.125 µM
36 | O=c1ccc2[n+]([O-])c3ccc(O)cc3oc-2c1 [resazurin] | -5.19 kcal/mol |  |  | δ(ΔG0) [1]: 4.97 kcal/mol; Ki ([1]; HAPT Ki, AVG): 155 µM
37 | COc1ccc(-c2ccc(-c3ccc(C(=N)N)cc3)o2)cc1 [DB607, 4-(5-(4-methoxyphenyl)furan-2-yl) benzimidamide hydrochloride] | -6.48 kcal/mol | 18.1 ± 1.9 µM | 3.7 kcal/mol | 
38 | N=C(N)c1ccc(-c2ccc(-c3ccc(-c4ccc(C(=N)N)cc4)o3)o2)cc1 [DB914] | -9.73 kcal/mol | 0.073 ± 0.013 µM | 0.43 kcal/mol | 
39 | Cn1c(-c2ccc(-c3ccc(C(=N)N)cc3)o2)nc2ccccc21 [DB960, 4-(5-(1-methyl-1H-benzo[d]imidazol-2-yl)furan-2-yl) benzimidamide dihydrochloride] | -6.52 kcal/mol | 16.6 ± 3.5 µM | 3.66 kcal/mol | 
40 | N=C(N)c1ccc(OCCCCCCCOc2ccc(C(=N)N)cc2)cc1 [Heptamidine] | -9.42 kcal/mol | 0.123 ± 0.01 µM | 0.741 kcal/mol | 
41 | N=C(N)c1ccc(-c2csc(-c3ccc(C(=N)N)cc3)c2)cc1 [DB1077, 4,4'-(thiophene-2,4-diyl) dibenzimidamide dihydrochloride] | -6.62 kcal/mol | 13.8 ± 3.1 µM | 3.54 kcal/mol | 
42 | c1cc(NC2=NCCN2)ccc1CCc1ccc(NC2=NCCN2)cc1 [FR39] | -5.98 kcal/mol | 41.7 ± 15.2 µM | 4.21 kcal/mol | 
43 | N=C(N)c1ccc(OCCCCCCOc2ccc(C(=N)N)cc2)cc1 [Hexamidine] | -9.87 kcal/mol | 0.058 ± 0.011 µM | 0.311 kcal/mol | 
